{"source": "patent EP0255256A2", "about": "“Antibiotics produced by actinomadura parvosata” (SMITHKLINE BECKMAN CORPORATION, priority 1986, dated 1988)", "key": {"[1]": {"tested_on": "Staph. haemolyticus 651", "experiment": "MIC, standard microtiter assay", "type": "cell-based", "description": "(§1) The in vitro minimal inhibitory concentration (MIC) of the AAJ-271 complex and its factors, and vancomycin were determined for a number of microorganisms using the standard microtite'r assay procedures. The results are shown in the following tables, each of which represents a different production run of the complex.\n(§2) The in vitro minimal inhibitory concentration (MIC) and the in vitro minimal bactericidal concentration (MBC) of the AAJ-271 aglycones, pseudo-aglycone and vancomycin were determined for a number of microorganisms using the standard microtiter assay procedures."}, "[2]": {"tested_on": "Staph. saprophyticus 2657", "experiment": "MIC, standard microtiter assay", "type": "cell-based", "conditions": "Staphylococcus saprophyticus, 2657, read-out: MIC in μg/ml, Staph. saprophyticus 2657", "description": "as §1, §2"}, "[3]": {"tested_on": "Strep. pyogenes (Group A)", "experiment": "MIC, standard microtiter assay", "type": "cell-based", "description": "as §1, §2"}, "[4]": {"tested_on": "Staph. aureus 209P vancomycin resistant mutant", "experiment": "MIC, standard microtiter assay", "type": "cell-based", "conditions": "Staphylococcus aureus, read-out: MIC in μg/ml", "description": "as §2"}, "[5]": {"tested_on": "Staph. epidermidis 2261", "experiment": "MIC, standard microtiter assay", "type": "cell-based", "conditions": "Staphylococcus epidermidis, 2261, read-out: MIC in μg/ml", "description": "as §2"}, "[6]": {"tested_on": "Staph. aureus 209P vancomycin resistant mutant", "experiment": "MBC, standard assay procedures", "type": "cell-based", "conditions": "Staphylococcus aureus, read-out: MBC in μg/ml", "description": "as §2"}, "[7]": {"tested_on": "Staph. aureus 209P", "experiment": "MBC, standard assay procedures", "type": "cell-based", "conditions": "Staphylococcus aureus, 209P, read-out: MBC in μg/ml", "description": "as §2"}, "[8]": {"tested_on": "Staph. aureus 910", "experiment": "MBC, standard assay procedures", "type": "cell-based", "conditions": "Staphylococcus aureus, 910, read-out: MBC in μg/ml", "description": "as §2"}, "[9]": {"tested_on": "Staph. epidermidis 2256", "experiment": "MBC, standard assay procedures", "type": "cell-based", "conditions": "Staphylococcus epidermidis, 2256, read-out: MBC in μg/ml", "description": "as §2"}, "[10]": {"tested_on": "Staph. epidermidis 2261", "experiment": "MBC, standard assay procedures", "type": "cell-based", "conditions": "Staphylococcus epidermidis, 2261, read-out: MBC in μg/ml", "description": "as §2"}, "[11]": {"tested_on": "Staph. epidermidis 2588", "experiment": "MBC, standard assay procedures", "type": "cell-based", "conditions": "Staphylococcus epidermidis, 2588, read-out: MBC in μg/ml", "description": "as §2"}, "[12]": {"tested_on": "Staph. saprophyticus 2657", "experiment": "MBC, standard assay procedures", "type": "cell-based", "conditions": "Staphylococcus saprophyticus, 2657, read-out: MBC in μg/ml", "description": "as §2"}, "[13]": {"tested_on": "Strep. pyogenes (Group A)", "experiment": "MBC, standard assay procedures", "type": "cell-based", "conditions": "Streptococcus pyogenes, read-out: MBC in μg/ml", "description": "as §2"}, "[14]": {"tested_on": "Staph. haemolyticus 651", "experiment": "Mouse protection assay", "type": "in vivo", "conditions": "Staphylococcus haemolyticus, 1 h; mice; Staph. haemolyticus 651, Dosage as No. of LD50's=9; treatment one hour post infection; Table IV"}, "[15]": {"experiment": "Serum half-life and urine concentration in mice (disk agar diffusion bioassay)", "conditions": "mouse, in vivo; strain CD-1 mice; antibiotic activity in blood serum by disk agar diffusion, Bacillus subtilis ATCC 6633 indicator", "description": "The antibiotic compounds of the present invention also have a very long serum half-life. The compounds of the present invention have a serum half-life of 12 hours compared to 0.3 hour for vancomycin. […] Antibiotic activity in blood serum was evaluated by disk agar diffusion with penicillin assay agar that was seeded with a Bacillus subtilis ATCC 6633 spore suspension as the indicator. Serum samples were evaluated against standards diluted in mouse serum and urines were evaluated against standards prepared in 1% pH 6 phosphate buffer. Assays were incubated at 28°C. […] The long half-life of the compounds of the present invention indicate usefulness prophylactically as an aid in prevention of infection."}}, "note": "Where two headings read alike, the source gives them in different places."}
{"molecule": "CN[C@H](CC(C)C)C(=O)N[C@H]1C(=O)N[C@@H](CC(N)=O)C(=O)N[C@H]2C(=O)N[C@H]3C(=O)N[C@H](C(=O)N[C@H](C(=O)O)c4cc(O)cc(O)c4-c4cc3ccc4O)[C@H](O)c3ccc(c(Cl)c3)Oc3cc2cc(c3O[C@@H]2O[C@H](CO)[C@@H](O)[C@H](O)[C@H]2O[C@H]2C[C@](C)(N)[C@H](O)[C@H](C)O2)Oc2ccc(cc2Cl)[C@H]1O", "note": "[Vancomycin, vancomycin]", "values": [{"measurement": "MIC", "setting": "[1]; Staph. haemolyticus 651, Table II", "value": 3.1, "unit": "µg/mL"}, {"measurement": "MIC", "setting": "[1]; Staph. haemolyticus 651, Table IX", "value": 3.1, "unit": "µg/mL"}, {"measurement": "MIC", "setting": "[1]; Staph. haemolyticus 651, Table VIII", "value": 3.1, "unit": "µg/mL"}, {"measurement": "MIC", "setting": "[1]; Staphylococcus haemolyticus, 651, read-out: MIC in μg/ml", "value": 3.1, "unit": "µg/mL"}, {"measurement": "MIC", "setting": "[2]; Table I", "value": 1.6, "unit": "µg/mL"}, {"measurement": "MIC", "setting": "[2]; Table VIII", "value": 3.1, "unit": "µg/mL"}, {"measurement": "MIC", "setting": "[3]; Strep. pyogenes (Group A), Table VIII", "value": 0.8, "unit": "µg/mL"}, {"measurement": "MIC", "setting": "[3]; Streptococcus pyogenes, read-out: MIC in μg/ml", "value": 0.8, "unit": "µg/mL"}, {"measurement": "MIC", "setting": "[4]", "value": "> 100", "unit": "µg/mL"}, {"measurement": "MIC", "setting": "[5]", "value": 6.3, "unit": "µg/mL"}, {"measurement": "MBC", "setting": "[6]", "value": "> 100", "unit": "µg/mL"}, {"measurement": "MBC", "setting": "[7]", "value": 0.8, "unit": "µg/mL"}, {"measurement": "MBC", "setting": "[8]", "value": 1.6, "unit": "µg/mL"}, {"measurement": "MBC", "setting": "[9]", "value": 3.1, "unit": "µg/mL"}, {"measurement": "MBC", "setting": "[10]", "value": 3.1, "unit": "µg/mL"}, {"measurement": "MBC", "setting": "[11]", "value": 6.3, "unit": "µg/mL"}, {"measurement": "MBC", "setting": "[12]", "value": 6.3, "unit": "µg/mL"}, {"measurement": "MBC", "setting": "[13]", "value": 0.8, "unit": "µg/mL"}, {"measurement": "ED50", "setting": "[14]", "value": 2.2, "unit": "mg/kg"}, {"measurement": "half-life", "setting": "[15]", "value": 18, "unit": "min"}]}
